Values quoted from earlier work as cited in patent EP2074993A1, “Venlafaxine-containing film-coated modified-release tablets” (Biovail Laboratories International S.r.l., priority 2007, dated 2009).

Settings: in vivo

Compound | elimination half-life
CN(C)CC(c1ccc(O)cc1)C1(O)CCCCC1 (centres unmarked) [O-desmethylvenlafaxine] | about 8 hours
COc1ccc(C(CN(C)C)C2(O)CCCCC2)cc1 (racemic) [Venlafaxine, (R/S)-1-[2-(dimethylamino)-1-(4-methoxyphenyl)ethyl]cyclohexanol] | about 4 hours
